Laboratory results from paper PMC4835877, “HM71224, a novel Bruton’s tyrosine kinase inhibitor, suppresses B cell and monocyte activation and ameliorates arthritis in a mouse model: a potential drug for rheumatoid arthritis” (Arthritis Research & Therapy, 2016).
Read-outs that look alike come from different tables or passages of the source.

How the values were obtained:
[1] = system: phosphorylation of Btk and PLCγ2 in primary human B cells; assay: BCR signaling in primary human B cells (immunoblot); assay type: cell-based; settings: BCR ligation
Procedure: (§2) Ramos cells or human B cells were pretreated with the indicated concentrations of HM71224 and then stimulated with anti-IgM F(ab’)2 (Southern Biotech, Birmingham, AL, USA) for 10 minutes on ice. Cells were then lysed in RIPA buffer (Sigma-Aldrich), and the proteins were separated by SDS-PAGE (Bio-Rad Laboratories, Hercules, CA, USA), transferred onto polyvinylidene fluoride (PVDF) membranes, and immunoblotted with anti-pBtk Y223 (catalog number 5082; Cell Signaling Technology, Danvers, MA, USA), anti-pPLCγ2 Y759 (catalog number 3874; Cell Signaling Technology), anti-pPLCγ2 Y1217 (Cell Signaling Technology), anti-pERK T202/204 (197G2; Cell Signaling Technology), anti-Btk (C82B8; Cell Signal Technology), anti-PLCγ2 (catalog number 3872; Cell Signal Technology), anti-ERK1/2 (3A7; Cell Signaling Technology), and anti-GAPDH (FL-335; Santa Cruz Biotechnology, Santa Cruz, TX, USA) antibodies.

[2] = system: EGFR-overexpressed A431 cells; assay: Cellular growth of EGFR-overexpressed A431 cells; assay type: cell-based
[3] = system: phosphorylation of Btk and PLCγ2 in Ramos cells; assay: BCR signaling in anti-IgM stimulated Ramos cells (immunoblot); assay type: cell-based, human
Procedure: as §2
The Ramos B cell lymphoma cell line was chosen to study the inhibitory effects of HM71224 on the BCR signaling cascade as it endogenously expresses Btk [14]. […] Ramos cells were incubated with 100 nM HM71224 for 1 h. After washing, the cells were stimulated with anti-IgM F(ab’)2.

[4] = biological target: T1, BMX (Homo sapiens, UniProt P51813); assay: FRET-based Z'-Lyte kinase assay; settings: read-out: Biochemical Inhibition, IC50
T1 construct: purchased ThermoFisher Scientific (contract research organization)
T1 sequence (P51813 whole entry): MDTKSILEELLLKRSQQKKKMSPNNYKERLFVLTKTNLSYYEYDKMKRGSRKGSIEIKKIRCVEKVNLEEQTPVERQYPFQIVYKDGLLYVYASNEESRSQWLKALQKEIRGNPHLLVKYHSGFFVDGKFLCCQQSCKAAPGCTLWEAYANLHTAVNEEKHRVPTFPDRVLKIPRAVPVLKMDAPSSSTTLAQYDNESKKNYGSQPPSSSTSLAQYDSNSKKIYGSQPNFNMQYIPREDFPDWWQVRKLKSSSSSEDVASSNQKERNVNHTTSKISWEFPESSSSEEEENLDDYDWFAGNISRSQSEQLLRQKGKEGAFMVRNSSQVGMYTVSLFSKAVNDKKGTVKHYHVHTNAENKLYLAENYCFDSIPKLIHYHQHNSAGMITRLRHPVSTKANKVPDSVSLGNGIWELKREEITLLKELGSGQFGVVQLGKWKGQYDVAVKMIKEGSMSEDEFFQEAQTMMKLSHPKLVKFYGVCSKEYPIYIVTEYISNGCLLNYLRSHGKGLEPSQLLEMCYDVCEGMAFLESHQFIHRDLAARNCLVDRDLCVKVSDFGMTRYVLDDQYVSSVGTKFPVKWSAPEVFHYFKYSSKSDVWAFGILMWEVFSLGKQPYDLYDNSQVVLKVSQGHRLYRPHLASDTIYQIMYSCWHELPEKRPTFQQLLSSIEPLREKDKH
From the text: (§1) To determine the biochemical selectivity of HM71224, we tested more than 85 kinases using the fluorescence resonance energy transfer (FRET) method.

[5] = biological target: T2, ITK (Homo sapiens, UniProt Q08881); assay: FRET-based Z'-Lyte kinase assay; settings: read-out: Biochemical Inhibition, IC50
T2 construct: purchased ThermoFisher Scientific (contract research organization)
T2 sequence (Q08881 whole entry): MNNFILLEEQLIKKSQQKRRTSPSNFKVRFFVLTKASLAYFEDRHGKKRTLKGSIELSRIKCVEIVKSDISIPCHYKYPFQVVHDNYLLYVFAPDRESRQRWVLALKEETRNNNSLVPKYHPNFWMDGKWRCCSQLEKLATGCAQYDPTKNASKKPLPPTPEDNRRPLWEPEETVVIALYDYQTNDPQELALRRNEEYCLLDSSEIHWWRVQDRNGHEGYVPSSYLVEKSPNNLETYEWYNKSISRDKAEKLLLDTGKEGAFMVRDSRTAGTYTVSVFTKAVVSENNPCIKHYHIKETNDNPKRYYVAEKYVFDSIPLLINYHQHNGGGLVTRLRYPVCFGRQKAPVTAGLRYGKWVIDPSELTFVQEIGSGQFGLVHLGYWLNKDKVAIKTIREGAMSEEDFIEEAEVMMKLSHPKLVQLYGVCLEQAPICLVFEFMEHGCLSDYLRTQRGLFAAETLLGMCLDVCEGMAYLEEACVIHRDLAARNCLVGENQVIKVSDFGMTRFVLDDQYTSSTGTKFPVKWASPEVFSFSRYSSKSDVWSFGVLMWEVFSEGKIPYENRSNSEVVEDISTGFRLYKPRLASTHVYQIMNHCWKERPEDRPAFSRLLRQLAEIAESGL
From the text: as §1

[6] = biological target: T3, CSK (Homo sapiens, UniProt P41240); assay: FRET-based Z'-Lyte kinase assay; settings: read-out: Biochemical Inhibition, IC50
T3 construct: purchased ThermoFisher Scientific (contract research organization)
From the text: as §1

[7] = biological target: T4, LYN (Homo sapiens, UniProt P07948); assay: FRET-based Z'-Lyte kinase assay; settings: read-out: Biochemical Inhibition, IC50
T4 construct: purchased ThermoFisher Scientific (contract research organization)
T4 sequence (P07948 whole entry): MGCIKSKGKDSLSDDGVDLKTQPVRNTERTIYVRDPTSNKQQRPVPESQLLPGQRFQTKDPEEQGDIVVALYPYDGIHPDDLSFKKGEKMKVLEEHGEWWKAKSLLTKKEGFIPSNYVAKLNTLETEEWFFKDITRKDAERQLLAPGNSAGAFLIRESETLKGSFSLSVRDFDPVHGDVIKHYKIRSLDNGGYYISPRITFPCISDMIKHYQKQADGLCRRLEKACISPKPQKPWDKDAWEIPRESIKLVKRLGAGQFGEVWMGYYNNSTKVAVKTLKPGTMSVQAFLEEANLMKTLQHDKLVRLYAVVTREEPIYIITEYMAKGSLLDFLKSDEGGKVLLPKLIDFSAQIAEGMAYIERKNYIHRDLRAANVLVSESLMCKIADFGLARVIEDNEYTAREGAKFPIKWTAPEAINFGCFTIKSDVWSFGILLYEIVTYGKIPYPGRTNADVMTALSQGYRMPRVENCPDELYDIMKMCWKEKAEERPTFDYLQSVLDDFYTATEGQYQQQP
From the text: as §1

[8] = biological target: T5, YES (Homo sapiens, UniProt P07947); assay: FRET-based Z'-Lyte kinase assay; settings: read-out: Biochemical Inhibition, IC50
T5 construct: purchased ThermoFisher Scientific (contract research organization)
T5 sequence (P07947 whole entry): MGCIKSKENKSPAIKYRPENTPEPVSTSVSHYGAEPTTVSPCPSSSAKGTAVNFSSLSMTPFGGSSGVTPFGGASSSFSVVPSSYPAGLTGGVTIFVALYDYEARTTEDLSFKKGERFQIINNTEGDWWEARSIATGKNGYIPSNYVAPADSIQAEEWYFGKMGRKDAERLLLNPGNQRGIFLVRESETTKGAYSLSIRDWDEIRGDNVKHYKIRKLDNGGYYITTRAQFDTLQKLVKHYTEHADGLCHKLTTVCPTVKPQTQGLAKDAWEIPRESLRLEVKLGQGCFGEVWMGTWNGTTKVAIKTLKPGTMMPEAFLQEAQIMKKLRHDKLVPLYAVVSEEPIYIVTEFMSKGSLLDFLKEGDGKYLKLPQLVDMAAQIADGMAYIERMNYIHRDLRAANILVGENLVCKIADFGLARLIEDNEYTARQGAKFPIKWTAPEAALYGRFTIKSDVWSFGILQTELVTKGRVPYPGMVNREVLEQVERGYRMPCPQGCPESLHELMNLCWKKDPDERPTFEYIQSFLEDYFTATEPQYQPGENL
From the text: as §1

[9] = biological target: T6, BLK (Homo sapiens, UniProt P51451); assay: FRET-based Z'-Lyte kinase assay; settings: read-out: Biochemical Inhibition, IC50
T6 construct: purchased ThermoFisher Scientific (contract research organization)
T6 sequence (P51451 whole entry): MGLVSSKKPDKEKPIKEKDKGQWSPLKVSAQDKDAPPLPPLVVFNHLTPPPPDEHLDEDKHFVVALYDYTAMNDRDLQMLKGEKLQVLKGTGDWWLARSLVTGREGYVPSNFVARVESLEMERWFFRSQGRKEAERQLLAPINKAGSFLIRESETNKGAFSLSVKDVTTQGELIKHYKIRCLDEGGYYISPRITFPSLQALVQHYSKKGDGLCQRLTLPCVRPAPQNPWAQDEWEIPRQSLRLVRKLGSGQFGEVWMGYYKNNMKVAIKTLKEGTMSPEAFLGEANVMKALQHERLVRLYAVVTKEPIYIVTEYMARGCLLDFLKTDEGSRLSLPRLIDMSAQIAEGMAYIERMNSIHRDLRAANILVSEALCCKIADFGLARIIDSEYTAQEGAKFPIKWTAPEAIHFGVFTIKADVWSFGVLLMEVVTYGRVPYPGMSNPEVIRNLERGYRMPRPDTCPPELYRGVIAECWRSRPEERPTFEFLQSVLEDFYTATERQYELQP
From the text: as §1

[10] = system: DBA/1 J mice with collagen-induced arthritis; assay: Collagen-induced arthritis (CIA) model; assay type: in vivo, mouse
Procedure: All animal experimental protocols were approved by the animal care and use committee of the Hanmi Research Center, and performed in accordance with approved guidelines. Male DBA/1 J mice (9 weeks old; n = 7 per group) were immunized with an emulsion of Complete Freund’s Adjuvant and bovine type II collagen (CII) (total volume, 0.07 mL) via intradermal injection at the base of the tail (day 0). Three weeks later, the mice received a booster immunization comprising bovine CII emulsified in Incomplete Freund’s Adjuvant. […] The arthritis score and body weight were measured three times per week for 2 weeks after administration of the drugs (Additional file 1: Figure S1). The arthritis score was determined by grading each paw from 0 to 4 based on erythema, swelling, and flexion of the joint and was expressed as the sum of the scores of all four paws. Serum levels of IL-6 were measured by Luminex analysis in a bead-based immunoassay (EMD Millipore Corporation). Serum levels of anti-CII and total IgG were measured by ELISA (Chondrex, Seattle, WA, USA; Bethyl Laboratories, Montgomery, TX, USA).
Micro-CT of the hind limbs was performed using a Siemens Inveon Micro-CT/PET scanner (Siemens Medical Solutions, Knoxville, TN, USA).
The hind legs of each mouse were fixed with 10 % formalin, decalcified in 5 % formic acid, and embedded in paraffin. Sections were then cut and stained with hematoxylin and eosin (H&E). The bone erosion index was scored from 0 to 4 according to the following criteria: 0 = no erosion, 1 = mild (focal subchondral erosion), 2 = moderate (multiple subchondral erosions), 3 = high (as above and focal erosion of talus), and 4 = maximum (multiple erosions of tarsal and metatarsal bones).
Figure S1. Experiment design of collagen induced arthritis. Untreated DBA/1J mice (n=7) served as healthy controls (Ctrl). DBA/1J mice (n= 56) were immunized Day 0 and day 21. On day 10 after boosting (i.e. day 31), the induction of CIA was evaluated. […] Immunized mice (n=42) were divided into 6 groups (n=7 in each group). […] CIA, collagen induced arthritis.

[11] = biological target: BTK (Homo sapiens, UniProt Q06187); assay: Kinome Binding Tree Spot analysis, Scan Max (DiscoveRx); set-up: purchased DiscoveRx (Scan Max panel); settings: concentration of 2 μM
BTK, sequence (Q06187 whole entry): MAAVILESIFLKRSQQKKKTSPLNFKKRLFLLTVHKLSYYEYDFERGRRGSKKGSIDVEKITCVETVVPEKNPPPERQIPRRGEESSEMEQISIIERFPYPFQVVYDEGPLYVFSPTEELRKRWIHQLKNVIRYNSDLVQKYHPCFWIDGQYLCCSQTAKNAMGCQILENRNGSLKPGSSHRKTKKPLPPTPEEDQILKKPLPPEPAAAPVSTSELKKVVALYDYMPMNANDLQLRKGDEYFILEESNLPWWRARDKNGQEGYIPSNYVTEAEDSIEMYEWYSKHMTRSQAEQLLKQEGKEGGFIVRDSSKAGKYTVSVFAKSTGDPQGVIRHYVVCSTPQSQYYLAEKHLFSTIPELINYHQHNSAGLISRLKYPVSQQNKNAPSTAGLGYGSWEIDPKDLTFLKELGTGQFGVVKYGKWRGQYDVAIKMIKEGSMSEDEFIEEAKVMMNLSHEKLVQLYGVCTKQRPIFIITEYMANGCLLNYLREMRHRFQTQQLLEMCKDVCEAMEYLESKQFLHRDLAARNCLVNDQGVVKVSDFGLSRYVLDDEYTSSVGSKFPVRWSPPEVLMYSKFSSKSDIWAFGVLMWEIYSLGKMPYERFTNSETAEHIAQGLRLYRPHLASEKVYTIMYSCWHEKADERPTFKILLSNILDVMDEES

[12] = biological target: EGFR (Homo sapiens, UniProt P00533); assay: Phosphorylation of EGFR in cells; assay type: cell-based; set-up: EGFR-overexpressing epidermoid carcinoma A431 cell line; endogenous in cells; host or cells: A431; settings: cellular; read-out: IC50 on inhibiting EGFR phosphorylation
EGFR, sequence (P00533 25-1210): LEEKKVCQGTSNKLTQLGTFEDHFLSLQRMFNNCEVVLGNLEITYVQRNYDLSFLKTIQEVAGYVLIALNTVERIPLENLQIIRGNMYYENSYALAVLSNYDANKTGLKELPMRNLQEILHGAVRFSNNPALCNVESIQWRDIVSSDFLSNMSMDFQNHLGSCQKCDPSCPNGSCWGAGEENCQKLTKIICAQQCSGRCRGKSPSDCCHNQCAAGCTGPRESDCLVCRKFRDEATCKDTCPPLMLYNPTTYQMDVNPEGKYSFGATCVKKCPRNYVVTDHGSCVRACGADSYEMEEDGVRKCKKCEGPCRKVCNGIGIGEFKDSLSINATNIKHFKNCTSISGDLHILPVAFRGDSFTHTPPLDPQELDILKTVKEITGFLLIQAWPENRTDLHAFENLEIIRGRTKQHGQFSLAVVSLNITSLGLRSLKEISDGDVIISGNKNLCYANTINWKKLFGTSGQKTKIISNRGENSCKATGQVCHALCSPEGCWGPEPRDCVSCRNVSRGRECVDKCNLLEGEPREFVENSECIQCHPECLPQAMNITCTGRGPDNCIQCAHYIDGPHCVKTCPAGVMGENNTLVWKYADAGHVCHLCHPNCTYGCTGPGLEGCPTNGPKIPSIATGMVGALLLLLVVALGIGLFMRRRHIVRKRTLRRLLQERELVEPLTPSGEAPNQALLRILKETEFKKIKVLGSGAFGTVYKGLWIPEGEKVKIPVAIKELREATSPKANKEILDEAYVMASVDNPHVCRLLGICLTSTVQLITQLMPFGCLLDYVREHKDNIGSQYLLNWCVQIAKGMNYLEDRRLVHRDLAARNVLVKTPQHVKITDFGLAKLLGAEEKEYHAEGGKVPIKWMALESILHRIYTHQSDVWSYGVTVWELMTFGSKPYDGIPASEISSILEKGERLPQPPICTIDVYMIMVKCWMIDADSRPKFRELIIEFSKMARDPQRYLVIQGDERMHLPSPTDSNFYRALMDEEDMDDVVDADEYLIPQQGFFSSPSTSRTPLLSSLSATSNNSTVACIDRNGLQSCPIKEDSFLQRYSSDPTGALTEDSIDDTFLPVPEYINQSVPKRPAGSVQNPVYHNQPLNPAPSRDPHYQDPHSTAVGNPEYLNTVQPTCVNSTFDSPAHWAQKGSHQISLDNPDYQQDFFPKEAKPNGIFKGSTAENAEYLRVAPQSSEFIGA

GI50 ([2]; Homo sapiens, A-431, read-out: GI50, concentration to inhibit 50 % of cellular growth, EGFR-overexpressed A431 cells): 1000 nM | GI50 ([2]; read-out: GI50, concentration to inhibit 50 % of cellular growth, EGFR-overexpressed A431 cells): > 1000 nM | IC50 [4]: 0.64 nM | IC50 [5]: 103 nM | IC50 [6]: > 1000 nM | IC50 [7]: > 1000 nM | IC50 [8]: 562 nM | IC50 [9]: 13.5 nM | Kinome binding selectivity [11]: selectively bound to Btk | IC50 [12]: 800 nM
SMILES: C=CC(=O)Nc1cccc(Oc2nc(Nc3ccc(N4CCN(C)CC4)cc3)nc3ccoc23)c1 [HM71224]
Phosphorylation of Btk and PLCγ2 [1]: effectively inhibited | Duration of inhibition of BTK phosphorylation after washout ([3]; 100 nM for 1 h, washed, then anti-IgM F(ab')2): at least 24 h | Phosphorylation of Btk and PLCγ2 ([3]; anti-IgM F(ab')2): decreased markedly | Levels of circulating anti-collagen antibodies vs untreated group ([10]; CIA mice): significantly lower | Serum IL-6 levels vs untreated group ([10]; CIA mice): significantly lower | Total IgG level ([10]; CIA mice): tended to be lower | Erosive bone changes and bone loss ([10]; CIA mice, H&E section): markedly reduced erosive bone changes and prevented bone loss | Weight loss ([10]; dose of 3 mg/kg or higher): prevented weight loss | AS, arthritis score ([10]; oral 1mg/kg once a day, D0): 1.1±0.7 | Wt, weight ([10]; oral 1mg/kg once a day, D0): 22.7±0.5 gram | AS, arthritis score ([10]; oral 1mg/kg once a day, D1): 1.1±0.7 | Wt, weight ([10]; oral 1mg/kg once a day, D1): 22.5±0.5 gram | AS, arthritis score ([10]; oral 1mg/kg once a day, D4): 1.9±0.9 | Wt, weight ([10]; oral 1mg/kg once a day, D4): 22.2±0.6 gram | AS, arthritis score ([10]; oral 1mg/kg once a day, D6): 2.1±1.1 | Wt, weight ([10]; oral 1mg/kg once a day, D6): 21.9±0.5 gram | AS, arthritis score ([10]; oral 1mg/kg once a day, D8): 2.9±1.1 | Wt, weight ([10]; oral 1mg/kg once a day, D8): 22.1±0.5 gram | AS, arthritis score ([10]; oral 1mg/kg once a day, D12): 5.0±1.0 | Wt, weight ([10]; oral 1mg/kg once a day, D12): 21.6±0.5 gram | AS, arthritis score ([10]; oral 1mg/kg once a day, D13): 6.6±0.7 | Wt, weight ([10]; oral 1mg/kg once a day, D13): 21.4±0.4 gram | AS, arthritis score ([10]; oral 1mg/kg once a day, D15): 6.6±0.9 | Wt, weight ([10]; oral 1mg/kg once a day, D15): 21.2±0.3 gram | AS, arthritis score ([10]; oral 3mg/kg once a day, D0): 1.1±0.3 | Wt, weight ([10]; oral 3mg/kg once a day, D0): 22.7±0.4 gram | AS, arthritis score ([10]; oral 3mg/kg once a day, D1): 1.3±0.7 | Wt, weight ([10]; oral 3mg/kg once a day, D1): 22.3±0.5 gram | AS, arthritis score ([10]; oral 3mg/kg once a day, D4): 1.9±0.6 | Wt, weight ([10]; oral 3mg/kg once a day, D4): 22.2±0.4 gram | AS, arthritis score ([10]; oral 3mg/kg once a day, D6): 1.9±0.6 | Wt, weight ([10]; oral 3mg/kg once a day, D6): 22.4±0.4 gram | AS, arthritis score ([10]; oral 3mg/kg once a day, D8): 2.0±0.7 | Wt, weight ([10]; oral 3mg/kg once a day, D8): 22.5±0.4 gram | AS, arthritis score ([10]; oral 3mg/kg once a day, D12): 3.1±0.9 | Wt, weight ([10]; oral 3mg/kg once a day, D12): 22.6±0.4 gram | AS, arthritis score ([10]; oral 3mg/kg once a day, D13): 3.4±1.2 | Wt, weight ([10]; oral 3mg/kg once a day, D13): 22.6±0.4 gram | AS, arthritis score ([10]; oral 3mg/kg once a day, D15): 3.4±1.4 | Wt, weight ([10]; oral 3mg/kg once a day, D15): 22.5±0.4 gram | AS, arthritis score ([10]; oral 10mg/kg once a day, D0): 1.1±0.6 | Wt, weight ([10]; oral 10mg/kg once a day, D0): 23.0±0.2 gram | AS, arthritis score ([10]; oral 10mg/kg once a day, D1): 0.9±0.3 | Wt, weight ([10]; oral 10mg/kg once a day, D1): 22.8±0.3 gram | AS, arthritis score ([10]; oral 10mg/kg once a day, D4): 0.4±0.2 | Wt, weight ([10]; oral 10mg/kg once a day, D4): 23.2±0.3 gram | AS, arthritis score ([10]; oral 10mg/kg once a day, D6): 0.6±0.4 | Wt, weight ([10]; oral 10mg/kg once a day, D6): 23.0±0.3 gram | AS, arthritis score ([10]; oral 10mg/kg once a day, D8): 0.6±0.3 | Wt, weight ([10]; oral 10mg/kg once a day, D8): 23.2±0.3 gram | AS, arthritis score ([10]; oral 10mg/kg once a day, D12): 1.0±0.4 | Wt, weight ([10]; oral 10mg/kg once a day, D12): 23.5±0.3 gram | AS, arthritis score ([10]; oral 10mg/kg once a day, D13): 0.7±0.4 | Wt, weight ([10]; oral 10mg/kg once a day, D13): 23.8±0.3 gram | AS, arthritis score ([10]; oral 10mg/kg once a day, D15): 0.7±0.4 | Wt, weight ([10]; oral 10mg/kg once a day, D15): 23.9±0.3 gram | AS, arthritis score ([10]; oral 30mg/kg once a day, D0): 1.1±0.5 | Wt, weight ([10]; oral 30mg/kg once a day, D0): 22.6±0.5 gram | AS, arthritis score ([10]; oral 30mg/kg once a day, D1): 0.9±0.3 | Wt, weight ([10]; oral 30mg/kg once a day, D1): 22.0±0.5 gram | AS, arthritis score ([10]; oral 30mg/kg once a day, D4): 0.3±0.2 | Wt, weight ([10]; oral 30mg/kg once a day, D4): 22.1±0.4 gram | AS, arthritis score ([10]; oral 30mg/kg once a day, D6): 0.3±0.2 | Wt, weight ([10]; oral 30mg/kg once a day, D6): 22.1±0.4 gram | AS, arthritis score ([10]; oral 30mg/kg once a day, D8): 0.4±0.2 | Wt, weight ([10]; oral 30mg/kg once a day, D8): 22.4±0.4 gram | AS, arthritis score ([10]; oral 30mg/kg once a day, D12): 0.4±0.2 | Wt, weight ([10]; oral 30mg/kg once a day, D12): 22.5±0.4 gram | AS, arthritis score ([10]; oral 30mg/kg once a day, D13): 0.4±0.3 | Wt, weight ([10]; oral 30mg/kg once a day, D13): 22.9±0.5 gram | AS, arthritis score ([10]; oral 30mg/kg once a day, D15): 0.3±0.2 | Wt, weight ([10]; oral 30mg/kg once a day, D15): 22.8±0.4 gram | Arthritis score vs untreated CIA mice ([10]; oral once a day for 2 weeks, P < 0.05 at 10 mg/kg, P < 0.01 at 30 mg/kg): lower arthritis scores than untreated CIA mice
